Reference: patent US11458225B2, “3D vascularized human ocular tissue for cell therapy and drug discovery” (THE UNITED STATES OF AMERICA, as represented by the …, priority 2016, dated 2022)
Entries after “also recorded” stand apart in the source; their conditions may differ.

Key:
[1] = tested on: 3D vascularized tissue containing GFP positive primary endothelial cells, pericytes, and fibroblasts; settings: a week of VEGF treatment (85 ng/ml) vs 3 days then basal 1.7 ng/ml
From the text: (A) 8 bit images of printed GFP endothelial cells (white) were quantified. Five line probes were placed in each gap between stripes of the printed geometry. Each line probe detects peaks (hollow circles) of GFP intensity above a threshold. Line 1 and 6, 2 and 5, 3 and 4 indicate edge, intermediate, and center of each gap, respectively. (B) Two experimental groups are compared. […] Angiogenesis was quantified as a number of GFP peaks in each line probe. The quantification of angiogenesis was performed between groups and time frames of G (n=5; number of printings). Error bars indicates standard error and mean. Two-way ANOVA and Bonferroni post-hoc pair comparison. † indicates statistical significance (p<0.05) between groups (left figure) and day 5-6 and day 7-8 (right figure). # and * indicates statistical significance (p<0.05) in day 3-4 vs. day 5-6 and day 3-4 vs. day 7-8, respectively.

RPE-“choroid” tissues = assay: Hypoxia disease model: DMOG treatment of bioprinted RPE-"choroid" tissue, confocal imaging; format: cell-based, human; settings: two weeks of treatment
Experimental: FIGS. 18A-18I are digital images showing the effect of hypoxia on “choriocapillaris.” RPE-“choroid” tissues were treated with DMOG (100 μM) after 4 weeks from printing. DMOG inhibits prolyl-4-hydroxylase and induces hypoxia-inducible factor. DMOG was treated on only apical region of RPE or on both apical region of RPE and “choroid” sides. After two weeks of DMOG treatment, tissues were fixed in 4% PFA. Z-stack confocal images were separated into three sections as RPE (A-C), subRPE/scaffold (D-F), and “choroid” (G-I). RPE was recognized by Hoescht (nuclei). Choroid was stained with CD31. Scale bar=100 μm.
It was tested if hypoxic condition of RPE or RPE-“choroid” plays a role in “choroidal” neovascularization. Hypoxia has been reported as a crucial factor to induce wet AMD. A chemical compound, DMOG, was used to induce hypoxia-inducible factor in RPE or every cell type within the tissue.

| Compound | growth and viability of microvascular network [1] | vascularization in sub-RPE region (CD31 stain) (RPE-“choroid” tissues; DMOG 100 μM from 4 weeks after printing, on apical region of RPE only or on both RPE and “choroid” sides) | changes of the RPE monolayer (RPE-“choroid” tissues; DMOG 100 μM, RPE recognized by Hoescht) |
| --- | --- | --- | --- |
| VEGF | significantly enhanced growth and viability of microvascular network | – | – |
| COC(=O)CNC(=O)C(=O)OC [DMOG] | – | significantly induced vascularization in sub-RPE region; also recorded: induced vascularization in the subRPE region | did not show noticeable changes |
